Reference: patent US20040023312A1, “Method for diagnosing huntingtons disease and means of treating it” (priority 2002, published 2004)
Read-outs that look alike come from different tables or passages of the source.

Assays:
[1] = in vivo; cited from earlier work
A2A receptor = A2A receptor (Rattus norvegicus, UniProt P30543); conditions: for cAMP formation with NECA + antagonist: 100 nM NECA, ST14A cells
adenyl cyclase = assay: cAMP levels stimulated by forskolin in ST14A parental cells and huntingtin clones; assay type: cell-based, rat
G-proteins = assay: cAMP response induced by GTP-gammaS, a direct stimulator of G-proteins; assay type: cell-based, rat; conditions: 10 μM GTP-gammaS; parental clone
Excerpt: This concept is set down in the next page.

[2] = focal ischaemia model; cited from earlier work
N548wt cells = assay: Serum-deprivation induced cell death (mitochondrial function); conditions: antagonist 100 nM, 24 h serum-free medium
Excerpt: Cell death has been induced by shifting cultures to serum-free medium in the absence (black columns) or presence of the indicated A2A receptor antagonists. Data are the mean±S.E. of 6 experiments run in triplicate and are expressed as % of total cell death. *p<0.05 vs. control, Scheffe's test.
To assess the functional importance of the aberrant A2A receptor phenotype and its possible correlation with susceptibility to cell death, we have performed experiments where the influence of A2A receptor antagonists on the survival rate of ST14A cells have been specifically determined.

Sequence of A2A receptor (P30543 whole entry): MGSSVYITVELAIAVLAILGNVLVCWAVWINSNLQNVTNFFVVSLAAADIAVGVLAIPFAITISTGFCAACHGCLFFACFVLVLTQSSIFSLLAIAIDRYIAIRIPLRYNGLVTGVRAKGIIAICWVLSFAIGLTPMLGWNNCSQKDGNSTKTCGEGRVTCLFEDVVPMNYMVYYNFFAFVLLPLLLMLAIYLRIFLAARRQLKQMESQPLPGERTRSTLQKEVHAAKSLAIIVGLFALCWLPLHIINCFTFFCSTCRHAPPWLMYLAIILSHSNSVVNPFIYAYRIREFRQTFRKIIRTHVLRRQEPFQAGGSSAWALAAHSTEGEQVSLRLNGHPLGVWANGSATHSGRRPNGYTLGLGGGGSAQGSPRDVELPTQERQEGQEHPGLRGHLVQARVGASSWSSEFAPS

SMILES: CCCCC#Cc1nc(N)c2ncn([C@@H]3O[C@H](C(=O)NCC)[C@@H](O)[C@H]3O)c2n1 [2-hexinyl-NECA]
- convulsions induced by pentyl-tetrazole [1]: markedly reduces

SMILES: Cn1c(=O)c2c(ncn2C)n(C)c1=O [Caffeine, caffeine]
- cAMP formation with NECA + antagonist (A2A receptor; antagonist 10 μM): 30 ± 3 pmole/10^5 cells
- cAMP formation with NECA + antagonist (A2A receptor; antagonist 100 μM): 27 ± 3 pmole/10^5 cells
- cAMP formation with NECA + antagonist (A2A receptor; antagonist 1 mM): 24 ± 3 pmole/10^5 cells
- antagonism of the increases in cAMP induced by NECA (A2A receptor; NECA 100 nM, parental clone and engineered clones): completely antagonizing

SMILES: C=C[C@@]1(C)CC(=O)[C@]2(O)[C@@]3(C)[C@@H](O)CCC(C)(C)[C@@H]3[C@H](O)[C@H](OC(C)=O)[C@@]2(C)O1 [Forskolin]
- cyclic AMP levels stimulated by forskolin (adenyl cyclase; Forskolin 1 μM + Ro201724 0.5 mM, FL mu cells): 78 ± 7 pmoles/10^5 cells
- cyclic AMP levels stimulated by forskolin (adenyl cyclase; Forskolin 1 μM + Ro201724 0.5 mM, FL wt cells): 60 ± 6 pmoles/10^5 cells
- cyclic AMP levels stimulated by forskolin (adenyl cyclase; Forskolin 1 μM + Ro201724 0.5 mM, N548 wt cells): 63 ± 6 pmoles/10^5 cells
- cyclic AMP levels stimulated by forskolin (adenyl cyclase; Forskolin 1 μM + Ro201724 0.5 mM, ST14A cells): 58 ± 4 pmoles/10^5 cells
- cyclic AMP levels stimulated by forskolin (adenyl cyclase; Forskolin 1 μM, FL mu cells): 55 ± 5 pmoles/10^5 cells
- cyclic AMP levels stimulated by forskolin (adenyl cyclase; Forskolin 1 μM, FL wt cells): 54 ± 6 pmoles/10^5 cells
- cyclic AMP levels stimulated by forskolin (adenyl cyclase; Forskolin 1 μM, N548 wt cells): 47 ± 3 pmoles/10^5 cells
- cyclic AMP levels stimulated by forskolin (adenyl cyclase; Forskolin 1 μM, ST14A cells): 45 ± 5 pmoles/10^5 cells

SMILES: Nc1nc2c(ncn2[C@@H]2O[C@H](COP(=O)(O)OP(=O)(O)OP(O)(O)=S)[C@@H](O)[C@H]2O)c(=O)[nH]1 [GTP-gammaS]
- cAMP levels in the presence of GTP-gammaS (G-proteins): 65±2 pmoles/10^5 cells

SMILES: Nc1nc2c(cnn2CCc2ccccc2)c2nc(-c3ccco3)nn12 [SCH 58261, 5-amino-7-(2-phenylethyl)-2-(2-furyl)pyrazolo[4,3-e]-1,2,4-triazolo [1,5-c]pyrimidine]
- cortical damage associated with occlusion of the middle cerebral artery [2]: significantly reducing
- effect on extent of serum-deprivation induced cell death (N548wt cells): did not significantly affect

SMILES: Nc1nc(NCCc2ccc(O)cc2)nc2nc(-c3ccco3)nn12 [ZM 241385, 4-[2-[[7-amino-2-(2-furyl)[1,2,4]triazolo[2,3-a][1,3,5]triazin-5-yl]amino]ethyl]phenol]
- effect on extent of serum-deprivation induced cell death (N548wt cells): did not significantly affect
